Source: US10987319B2, “TFEB activator C1 ameliorates app and tau pathology and rescues cognitive deficits in neurodegenerative diseases” (Hong Kong Baptist University, priority 2018, dated 2021)

Tests used:
Assay type in all cases: in vivo
Aβ plaques [1] = experiment: Immunohistochemistry of Aβ plaques (4G8 antibody), 5×FAD mice
Experimental: Male 5×FAD mice were purchased from Jackson laboratories (Stock number 006554) and maintained at 23±2° C. temperature, 60±15% relative humidity with free access to food and water ad libitum. 5×FAD male mice were inbred with wild-type (WT, C57/BL6) female mice to produce heterozygous offspring. Offspring were genotyped to select 5×FAD (APP KM670/671NL (Swedish), APP I716V (Florida), APP V717I (London), PSEN1 M146L (A>C), PSEN1 L286V) gene mutations mice. Two months old WT and 5×FAD mice (male and female, n=10-14 per group) were treated daily with vehicle (1% sodium carbonyl methylcellulose [CMC-Na; Sigma-Aldrich, C5678]), curcumin analogue C1 (5 mg/kg, 10 mg/kg) or curcumin (50 mg/kg; Sigma-Aldrich, 08511) suspended in 1% CMC-Na by oral gavage for 4 months.
Mice half brains were fixed with 4% paraformaldehyde in PBS overnight and dehydrated in 30% sucrose in PBS for at least 24 h. Brain sections (30 μm) were cut on a microtome and stored at 4° C. in PBS+0.1% sodium azide. Sections were permeabilized for 10 min with cold PBS containing 0.5% Triton X-100 and blocked with 3% bovine serum albumin for 1 h at room temperature. The sections were incubated with biotinylated 4G8 antibody (800701, Biolegend) overnight, and then incubated with Avidin-Biotin enzyme complex (Vecstatin-ELITE ABC-HRP kit) and Aβ plaques were visualized by DAB peroxidase and quantified using ImageJ software.

Aβ plaques [2] = experiment: Immunohistochemistry of Aβ plaques (4G8 antibody), 3×Tg mice; conditions: 10 mg/kg oral 7 months
Experimental: Homozygous 3×Tg mice (APP KM670/671NL (Swedish), MAPT P301L, PSEN1 M146V) were produced in Hong Kong Baptist University animal house and maintained at 23±2° C. temperature, 60±15% relative humidity with free access to food and water ad libitum.
Brain sections (30 μm) were cut on a microtome and stored at 4° C. in PBS+0.1% sodium azide. Sections were permeabilized for 10 min with cold PBS containing 0.5% Triton X-100 and blocked with 3% bovine serum albumin for 1 h at room temperature.

5×FAD mice = experiment: Long-term potentiation (TBS, MED64 multi-electrode array) in hippocampal slices of treated mice; conditions: female 5×FAD mice, 10 mg/kg oral 3 months, P<0.001
Experimental: Heterozygous male 5×FAD mice purchased from Jackson laboratory (#006554) were maintained HKBU animal house at 23±2 OC and 60-15% relative humidity with free access to feed and water ad libitum. Male 5×FAD mice were bred with female wild-type C57BL/6. The produced heterozygous litters were maintained until their age 2 months. At 2 months age tail sample is collected in Non-ionic detergent buffer (50 mM KCL, 10 mM Tris-HCL, 2.5 mM mgCl2, 0.1 mg/ml Gelatin, 0.45% v/v NP-40, 0.45% v/v Tween 20 and 100 μgm/ml Proteinase K). Tail samples were incubated in 55° C. for overnight and denatured at 95° C. for 5 mins. Denatured samples were centrifuged, and supernatant is used for genotyping. Mice tail samples were genotyped using standard PCR protocol by using GoTaq G2 Green Master Mix (M7822), for APP, Forward 5′-[…]-3′ (SEQ ID NO: 81) and reverse, 5′-CGGGGGTCTAGTTCTGCAT-3′ (SEQ ID NO: 82). […]
Brain slice preparation: Wild type and 5× mice treated with or without C1 were cervical dislocated and rapidly brain was removed and placed in oxygenated ice-cold sucrose buffer (213 mM sucrose, 10 mM D-glucose, 2.5 mM KCL, 1.25 mM KH2PO4, 2.5 mM CaCl2, 10 mM MgSO4.7H2O, 75 mM NaCl and […] NaHCO3). […] Slope of each Excitatory Post Synaptic Potential […] (fEPSP) is calculated by using MED64-Quad II system and Mobius MED 64 software.

SMILES: COc1ccccc1/C=C/C(=O)/C=C/c1ccccc1OC [Compound C1, 1,5-bis(2-methoxyphenyl)penta-1,4-dien-3-one]
- Aβ plaque load in cortico-hippocampal sections (Aβ plaques [1]; high dosage 10 mg/kg oral 4 months): significant reduction
- Aβ plaque load in cortico-hippocampal sections (Aβ plaques [1]; low dosage 5 mg/kg oral 4 months): significant reduction
- hippocampal Aβ plaque load (Aβ plaques [2]): reduces hippocampal Aβ plaque load
- synaptic plasticity (long-term potentiation induced by TBS, fEPSP slope) vs vehicle (5×FAD mice): significantly restored
